Source: ChEMBL document CHEMBL1201862, “PubChem BioAssay data set” (2004)
The source made the active and inactive calls.

How the values were obtained:
Melanocortin receptor 4 = Melanocortin receptor 4 (Homo sapiens, UniProt P32245); type: functional, cell-based;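 further: Cell-based assay with luminescence read-out, confirmatory dose-response testing for agonist activity of biased ligands at MC4R; human U2OS cells with tagged receptor and beta-arrestin; potency of agonists that increase receptor coupling to beta-arrestin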
Interleukin-8 [1] = target: T1, Interleukin-8 (Homo sapiens, UniProt P10145); test: Dose Response confirmation of uHTS small molecule hits for cystic fibrosis induced NFkb Inhibitors in a TNFa-induced IL8 counterscreen.; type: functional; settings: read-out: IC50_Mean
T1 sequence (P10145 whole entry): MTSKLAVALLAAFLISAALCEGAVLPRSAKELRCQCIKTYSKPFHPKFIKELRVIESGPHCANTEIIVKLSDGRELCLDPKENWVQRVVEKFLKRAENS

Interleukin-8 [2] = target: T1, Interleukin-8; test: Dose Response confirmation of uHTS small molecule hits for cystic fibrosis induced NFkb Inhibitors in a PAF-induced IL8 counterscreen.; type: functional; settings: read-out: IC50_Mean
[3] = target: T2, ATP-dependent translocase ABCB1 (Homo sapiens, UniProt P08183); test: inhibition of BCRP-mediated JC-1 efflux – Ig-MXP3 cells, flow cytometry, set 2, dose response (AID 504566); type: functional; settings: read-out: EC50_MICROM_;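 further: flow cytometry median green fluorescence of retained JC-1 dye; potency of efflux pump inhibition measured as rising substrate retention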
T2 sequence (P08183 whole entry): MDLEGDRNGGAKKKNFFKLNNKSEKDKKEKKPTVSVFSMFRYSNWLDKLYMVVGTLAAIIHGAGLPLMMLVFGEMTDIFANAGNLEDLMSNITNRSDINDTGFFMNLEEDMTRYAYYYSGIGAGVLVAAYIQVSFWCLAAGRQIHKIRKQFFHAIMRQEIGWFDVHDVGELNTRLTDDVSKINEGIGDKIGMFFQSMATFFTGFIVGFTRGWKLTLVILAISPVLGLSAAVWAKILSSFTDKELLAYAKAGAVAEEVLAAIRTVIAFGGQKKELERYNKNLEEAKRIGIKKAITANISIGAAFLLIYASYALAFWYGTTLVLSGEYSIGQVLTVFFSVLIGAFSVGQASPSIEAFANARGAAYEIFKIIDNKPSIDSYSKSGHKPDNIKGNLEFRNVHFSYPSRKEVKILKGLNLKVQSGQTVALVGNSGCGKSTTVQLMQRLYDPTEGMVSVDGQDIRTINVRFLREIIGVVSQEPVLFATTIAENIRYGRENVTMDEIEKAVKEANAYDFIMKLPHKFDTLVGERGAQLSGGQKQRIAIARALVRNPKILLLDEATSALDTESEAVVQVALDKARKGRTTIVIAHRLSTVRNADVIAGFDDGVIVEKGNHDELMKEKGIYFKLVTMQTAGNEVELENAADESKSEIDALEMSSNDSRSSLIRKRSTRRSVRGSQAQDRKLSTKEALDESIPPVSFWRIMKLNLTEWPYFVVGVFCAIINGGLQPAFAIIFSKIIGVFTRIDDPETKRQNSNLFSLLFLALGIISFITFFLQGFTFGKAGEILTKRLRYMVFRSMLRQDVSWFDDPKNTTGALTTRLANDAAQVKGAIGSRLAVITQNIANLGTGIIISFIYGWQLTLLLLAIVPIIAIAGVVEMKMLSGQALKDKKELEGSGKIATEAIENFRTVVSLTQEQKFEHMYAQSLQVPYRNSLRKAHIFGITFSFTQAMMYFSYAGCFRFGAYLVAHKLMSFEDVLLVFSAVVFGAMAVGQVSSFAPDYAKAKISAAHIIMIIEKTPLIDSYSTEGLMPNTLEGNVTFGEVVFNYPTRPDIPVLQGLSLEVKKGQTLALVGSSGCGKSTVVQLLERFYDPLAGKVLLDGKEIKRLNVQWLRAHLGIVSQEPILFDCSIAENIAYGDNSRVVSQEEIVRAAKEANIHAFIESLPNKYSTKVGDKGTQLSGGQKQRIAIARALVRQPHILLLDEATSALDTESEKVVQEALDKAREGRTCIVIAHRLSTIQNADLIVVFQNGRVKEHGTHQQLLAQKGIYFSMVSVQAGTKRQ

[4] = target: T2, ATP-dependent translocase ABCB1; test: P-gp JC-1 efflux blockade concentration-response – Jurkat-DNR cells, flow cytometry, set 2, dose response (AID 504569); type: functional; settings: read-out: EC50_MICROM_;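 further: potency of pump inhibitors that raise cellular JC-1 green fluorescence up to the nicardipine level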
[5] = target: Potassium voltage-gated channel subfamily KQT member 2 (Rattus norvegicus, UniProt O88943); test: blockers of KCNQ2 channel current – cell-based, automated electrophysiology, set II, rat KCNQ2, dose response (AID 588637); type: functional
[6] = microbe, parasite or virus in culture; type: functional; settings: Mycobacterium tuberculosis
H9c2 = test: cells; type: functional, cell-based; settings: Rattus norvegicus, H9c2, Myocardium;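 further: confirmatory concentration-response retest of ultra-high-throughput screening hits for modulation of myocardial damage; cell death induced by hydrogen peroxide oxidative stress; compound pretreatment for 60 min then peroxide exposure for 2 h; potency is for protecting the cells against peroxide damage rather than for killing them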
[7] = bead-based luminescence quenchers, dual-tagged ARNT – biochemical, AlphaScreen, cherry-pick, artefact control for ARNT-TACC3 interaction inhibitor project, dose response (AID 651705); type: functional;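 further: AlphaScreen bead proximity signal that flags compounds interfering with the detection technology; potency reflects signal decrease which marks the compound as an assay artifact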
Large T antigen = Large T antigen (Simian virus 40, UniProt P03070); type: functional, Betapolyomavirus macacae;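 further: Confirmatory-stage PubChem screen for compounds that inhibit SV40 T antigen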
Chain of Large T antigen (P03070 whole entry): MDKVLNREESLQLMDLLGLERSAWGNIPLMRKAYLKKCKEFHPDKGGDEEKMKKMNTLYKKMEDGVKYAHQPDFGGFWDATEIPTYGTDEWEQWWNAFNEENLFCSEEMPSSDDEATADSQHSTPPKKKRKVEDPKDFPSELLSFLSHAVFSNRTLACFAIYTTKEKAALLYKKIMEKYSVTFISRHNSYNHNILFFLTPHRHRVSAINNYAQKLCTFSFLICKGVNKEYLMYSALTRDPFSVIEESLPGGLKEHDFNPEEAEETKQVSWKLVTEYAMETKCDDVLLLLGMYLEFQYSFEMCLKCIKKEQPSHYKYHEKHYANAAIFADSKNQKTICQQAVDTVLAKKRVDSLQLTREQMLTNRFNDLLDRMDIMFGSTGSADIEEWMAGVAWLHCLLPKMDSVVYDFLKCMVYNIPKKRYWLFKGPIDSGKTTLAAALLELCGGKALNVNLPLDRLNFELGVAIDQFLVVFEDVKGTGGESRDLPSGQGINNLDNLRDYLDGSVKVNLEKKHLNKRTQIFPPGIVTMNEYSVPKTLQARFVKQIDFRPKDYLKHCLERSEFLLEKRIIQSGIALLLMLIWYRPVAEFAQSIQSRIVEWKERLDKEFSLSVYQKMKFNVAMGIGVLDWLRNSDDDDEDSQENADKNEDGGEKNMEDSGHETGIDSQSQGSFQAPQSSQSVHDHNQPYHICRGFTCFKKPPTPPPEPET

[8] = Trypanosoma cruzi growth suppression in host cells – NIH3T3 host cells, beta-gal luminescence, confirmation (AID 2044); type: functional, cell-based;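 further: intracellular parasites grown in NIH/3T3 mouse fibroblasts as host cells; luminescent beta-galactosidase reporter signal from transgenic T. cruzi replicating inside host cells; inhibitors lower the luminescence signal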
[9] = NIH3T3 cell viability loss – ATP luminescence, mouse fibroblasts, counter-screen, dose response (AID 2010); type: functional, cell-based;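 further: cells exposed to compound for about 90 hours before reading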
[10] = target: Glucose-6-phosphate 1-dehydrogenase (Homo sapiens, UniProt P11413); test: inhibition of Homo sapiens G6PD, dose series – biochemical, fluorescence, selectivity assay for P. falciparum G6PD inhibitor project, dose response (AID 504792); type: functional
Chain of Glucose-6-phosphate 1-dehydrogenase (P11413 whole entry): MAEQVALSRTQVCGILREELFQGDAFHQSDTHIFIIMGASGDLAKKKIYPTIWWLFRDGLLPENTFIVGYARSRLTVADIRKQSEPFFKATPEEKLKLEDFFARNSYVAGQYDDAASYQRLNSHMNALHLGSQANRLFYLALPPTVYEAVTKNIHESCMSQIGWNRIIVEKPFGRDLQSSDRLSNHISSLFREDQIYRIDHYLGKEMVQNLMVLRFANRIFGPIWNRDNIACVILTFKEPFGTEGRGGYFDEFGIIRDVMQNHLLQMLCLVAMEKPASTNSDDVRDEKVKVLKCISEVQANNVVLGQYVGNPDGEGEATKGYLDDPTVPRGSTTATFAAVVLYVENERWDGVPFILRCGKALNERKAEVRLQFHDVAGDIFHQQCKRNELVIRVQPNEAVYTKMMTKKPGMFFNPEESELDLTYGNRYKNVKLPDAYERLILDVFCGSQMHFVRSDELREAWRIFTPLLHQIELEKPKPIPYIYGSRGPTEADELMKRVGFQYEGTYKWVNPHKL

Nonstructural protein 1 = Nonstructural protein 1 (Influenza A virus, UniProt Q194T2); type: functional, Influenza A virus (A/California/07/2009(H1N1))
[11] = target: T3, Replicative DNA helicase DnaB (Mycobacterium tuberculosis, UniProt P9WMR3); test: DnaB intein splicing inhibitors, dose response, biochemical, cell-free fluorescence (AID 449749); type: functional
T3 sequence (P9WMR3 whole entry): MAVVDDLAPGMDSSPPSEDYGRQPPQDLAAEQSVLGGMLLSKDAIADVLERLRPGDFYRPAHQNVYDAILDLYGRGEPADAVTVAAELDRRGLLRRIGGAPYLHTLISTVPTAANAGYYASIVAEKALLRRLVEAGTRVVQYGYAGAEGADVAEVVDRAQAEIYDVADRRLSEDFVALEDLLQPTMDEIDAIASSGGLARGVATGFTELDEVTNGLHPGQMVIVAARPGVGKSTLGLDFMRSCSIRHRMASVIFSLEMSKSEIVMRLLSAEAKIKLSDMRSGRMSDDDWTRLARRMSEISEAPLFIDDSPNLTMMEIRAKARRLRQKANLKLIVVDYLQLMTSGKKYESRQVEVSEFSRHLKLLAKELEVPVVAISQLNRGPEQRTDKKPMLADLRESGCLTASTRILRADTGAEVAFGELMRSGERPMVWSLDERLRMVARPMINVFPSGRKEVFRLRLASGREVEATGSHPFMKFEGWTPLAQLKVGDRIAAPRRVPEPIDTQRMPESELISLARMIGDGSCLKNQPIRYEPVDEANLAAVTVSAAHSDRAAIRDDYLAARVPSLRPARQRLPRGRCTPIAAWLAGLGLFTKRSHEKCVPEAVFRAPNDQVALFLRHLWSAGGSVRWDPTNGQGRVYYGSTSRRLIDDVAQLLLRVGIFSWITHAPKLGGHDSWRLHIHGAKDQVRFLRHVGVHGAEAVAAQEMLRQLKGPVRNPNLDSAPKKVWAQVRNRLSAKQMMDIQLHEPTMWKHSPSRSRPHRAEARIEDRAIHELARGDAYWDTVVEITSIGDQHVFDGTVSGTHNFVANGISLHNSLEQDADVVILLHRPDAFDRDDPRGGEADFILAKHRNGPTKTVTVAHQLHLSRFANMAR

Protein RecA = target: T4, Protein RecA (Mycobacterium tuberculosis, UniProt P9WHJ3); test: Fluorescence Cell-Free Homogeneous Dose Retest to Identify Inhibitors of RecA-Intein Splicing Activity. [Related pubchem assays (depositor defined):AID2097, AID2223, AID489010, AID492950]; type: functional
T4 sequence (P9WHJ3 whole entry): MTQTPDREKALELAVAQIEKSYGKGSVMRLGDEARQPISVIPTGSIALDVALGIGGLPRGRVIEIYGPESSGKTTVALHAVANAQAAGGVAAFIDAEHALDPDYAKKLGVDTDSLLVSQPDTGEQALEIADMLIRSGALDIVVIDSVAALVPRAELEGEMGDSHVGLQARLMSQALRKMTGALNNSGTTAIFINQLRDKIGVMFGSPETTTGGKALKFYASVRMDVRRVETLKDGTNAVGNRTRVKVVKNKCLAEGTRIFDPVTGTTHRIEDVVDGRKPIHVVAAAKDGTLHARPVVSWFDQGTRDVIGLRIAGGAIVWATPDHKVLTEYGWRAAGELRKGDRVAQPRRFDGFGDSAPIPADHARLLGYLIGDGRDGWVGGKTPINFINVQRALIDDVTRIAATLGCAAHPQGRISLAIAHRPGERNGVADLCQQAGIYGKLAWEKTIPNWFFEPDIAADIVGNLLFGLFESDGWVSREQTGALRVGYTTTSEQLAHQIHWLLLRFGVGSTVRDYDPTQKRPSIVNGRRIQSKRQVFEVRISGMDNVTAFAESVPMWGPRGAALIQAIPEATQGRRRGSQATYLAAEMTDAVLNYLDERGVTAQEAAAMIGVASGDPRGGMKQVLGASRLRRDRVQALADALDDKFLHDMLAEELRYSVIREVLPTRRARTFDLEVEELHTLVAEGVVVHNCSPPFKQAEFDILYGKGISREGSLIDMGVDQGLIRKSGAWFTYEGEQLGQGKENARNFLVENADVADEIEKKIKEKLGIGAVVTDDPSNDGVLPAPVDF

INS1 = test: INS-1E survival protection against cytokine death – cell-based, luminescence, retest, dose response (AID 449756); type: functional; settings: Rattus norvegicus;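 further: cell death triggered by IL-1 beta plus TNF-alpha plus IFN-gamma mixture; protective hits raise ATP signal compared with cytokine alone wells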
[12] = viability loss in THP-1 monocytes – THP-1 cells, cytotoxicity control for Vif-APOBEC3G degradation inhibitor project, dose response (AID 1117359); type: functional; settings: THP-1
[13] = target: Glutathione-S-transferase (Schistosoma japonicum, UniProt Q26513); test: GST-antibody interaction or FRET quenching – biochemical, TR-FRET, artefact control for Vif-APOBEC3G degradation inhibitor project, dose response (AID 1117362); type: functional
Chain of Glutathione-S-transferase (Q26513 whole entry): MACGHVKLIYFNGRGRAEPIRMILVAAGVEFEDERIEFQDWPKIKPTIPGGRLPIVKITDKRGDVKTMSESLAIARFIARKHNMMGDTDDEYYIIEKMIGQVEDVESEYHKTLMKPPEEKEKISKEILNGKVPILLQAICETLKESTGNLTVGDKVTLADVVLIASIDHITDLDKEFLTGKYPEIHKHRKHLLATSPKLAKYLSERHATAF

Cytochrome P450 3A4 = Cytochrome P450 3A4 (Homo sapiens, UniProt P08684); settings: Potency;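 further: confirmatory qHTS run detecting inhibitors and substrates of CYP3A4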
Chain of Cytochrome P450 3A4 (P08684 whole entry): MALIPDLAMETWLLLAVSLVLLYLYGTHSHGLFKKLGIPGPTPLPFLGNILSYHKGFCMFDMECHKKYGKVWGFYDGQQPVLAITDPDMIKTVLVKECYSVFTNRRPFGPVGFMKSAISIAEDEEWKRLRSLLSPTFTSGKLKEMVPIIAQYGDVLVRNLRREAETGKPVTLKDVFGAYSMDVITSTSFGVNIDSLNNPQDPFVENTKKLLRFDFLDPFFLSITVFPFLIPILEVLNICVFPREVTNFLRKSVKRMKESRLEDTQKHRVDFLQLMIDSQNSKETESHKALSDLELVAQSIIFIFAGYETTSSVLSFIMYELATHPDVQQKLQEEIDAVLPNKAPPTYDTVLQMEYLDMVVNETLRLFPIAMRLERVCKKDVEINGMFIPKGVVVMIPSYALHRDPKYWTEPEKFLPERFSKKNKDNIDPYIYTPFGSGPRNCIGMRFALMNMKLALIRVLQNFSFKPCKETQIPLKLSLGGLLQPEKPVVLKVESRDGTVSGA

[14] = target: Voltage-gated inwardly rectifying potassium channel KCNH2 (Homo sapiens, UniProt Q12809); settings: Potency;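 further: confirmatory quantitative high-throughput screen measuring inhibition of hERG channel activity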
Chain of Voltage-gated inwardly rectifying potassium channel KCNH2 (Q12809 whole entry): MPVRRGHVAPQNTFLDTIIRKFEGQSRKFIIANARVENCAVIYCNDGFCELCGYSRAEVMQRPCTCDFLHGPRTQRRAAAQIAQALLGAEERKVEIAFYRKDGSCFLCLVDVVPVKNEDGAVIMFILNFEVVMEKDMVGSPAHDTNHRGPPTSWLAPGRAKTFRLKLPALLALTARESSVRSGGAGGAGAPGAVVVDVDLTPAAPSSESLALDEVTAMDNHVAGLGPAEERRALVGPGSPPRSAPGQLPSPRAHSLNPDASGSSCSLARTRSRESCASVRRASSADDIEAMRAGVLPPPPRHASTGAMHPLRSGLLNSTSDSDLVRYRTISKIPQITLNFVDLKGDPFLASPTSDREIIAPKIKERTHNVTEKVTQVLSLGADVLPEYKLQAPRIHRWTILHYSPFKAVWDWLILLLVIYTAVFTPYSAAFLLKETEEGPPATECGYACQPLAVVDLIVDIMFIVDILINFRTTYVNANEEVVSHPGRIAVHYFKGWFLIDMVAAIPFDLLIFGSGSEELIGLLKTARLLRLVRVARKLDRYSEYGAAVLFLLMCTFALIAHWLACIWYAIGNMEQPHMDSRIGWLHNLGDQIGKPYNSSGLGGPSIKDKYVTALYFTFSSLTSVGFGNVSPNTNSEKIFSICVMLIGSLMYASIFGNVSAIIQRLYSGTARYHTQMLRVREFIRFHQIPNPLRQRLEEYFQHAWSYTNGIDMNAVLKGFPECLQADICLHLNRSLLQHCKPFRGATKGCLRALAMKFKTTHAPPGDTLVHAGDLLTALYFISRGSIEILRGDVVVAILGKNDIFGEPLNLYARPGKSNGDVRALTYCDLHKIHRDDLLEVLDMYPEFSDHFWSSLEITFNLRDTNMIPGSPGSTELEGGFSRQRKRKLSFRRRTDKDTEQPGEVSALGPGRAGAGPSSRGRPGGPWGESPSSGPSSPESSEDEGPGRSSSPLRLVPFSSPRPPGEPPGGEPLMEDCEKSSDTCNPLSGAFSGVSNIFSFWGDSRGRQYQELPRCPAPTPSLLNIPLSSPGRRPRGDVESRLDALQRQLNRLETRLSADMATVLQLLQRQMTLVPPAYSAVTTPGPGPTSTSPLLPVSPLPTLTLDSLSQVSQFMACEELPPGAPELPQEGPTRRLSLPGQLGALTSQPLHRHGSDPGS

[15] = target: Aryl hydrocarbon receptor (Homo sapiens, UniProt P35869); settings: Potency;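 further: confirmatory quantitative high-throughput screen measuring activation of the AhR signaling pathway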
[16] = target: T5, Low molecular weight phosphotyrosine protein phosphatase (Homo sapiens, UniProt P24666); type: functional; settings: read-out: IC50_Mean
T5 sequence (P24666 whole entry): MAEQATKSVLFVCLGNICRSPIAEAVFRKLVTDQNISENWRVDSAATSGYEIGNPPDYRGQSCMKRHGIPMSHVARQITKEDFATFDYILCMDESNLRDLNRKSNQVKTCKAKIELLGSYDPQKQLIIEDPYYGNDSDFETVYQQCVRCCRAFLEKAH

[17] = target: T5, Low molecular weight phosphotyrosine protein phosphatase; type: functional; settings: read-out: IC50_Mean; remark: listed apart in the source
[18] = target: Tyrosine-protein phosphatase non-receptor type 11 (Homo sapiens, UniProt Q06124); test: PTPN11 enzyme inhibitors – biochemical, selectivity assay for STEP inhibitor project, dose response (AID 602367); type: functional; settings: read-out: IC50_Mean
[19] = target: Tyrosine-protein phosphatase non-receptor type 5 (Homo sapiens, UniProt P54829); test: PTPN5 enzyme inhibition – biochemical, fluorescence intensity, uHTS hits, confirmation (AID 602372); type: functional; settings: read-out: IC50_Mean
[20] = target: Dual specificity protein phosphatase 3 (Homo sapiens, UniProt P51452); test: VHR phosphatase inhibition, dose response, selectivity assay for STEP inhibitor project, biochemical (AID 602374); type: functional; settings: read-out: IC50_Mean
Chain of Dual specificity protein phosphatase 3 (P51452 whole entry): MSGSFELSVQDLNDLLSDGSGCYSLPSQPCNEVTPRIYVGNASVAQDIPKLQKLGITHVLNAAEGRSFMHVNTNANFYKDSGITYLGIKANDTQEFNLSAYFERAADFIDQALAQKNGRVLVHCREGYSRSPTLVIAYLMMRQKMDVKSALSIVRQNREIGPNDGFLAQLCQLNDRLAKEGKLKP

Caspase-6 = target: T6, Caspase-6 (Homo sapiens, UniProt P55212); test: inhibition of CASP6 peptide cleavage – biochemical, VEID-R110 fluorescence, cherry-pick, dose response (AID 720632)
T6 sequence (P55212 whole entry): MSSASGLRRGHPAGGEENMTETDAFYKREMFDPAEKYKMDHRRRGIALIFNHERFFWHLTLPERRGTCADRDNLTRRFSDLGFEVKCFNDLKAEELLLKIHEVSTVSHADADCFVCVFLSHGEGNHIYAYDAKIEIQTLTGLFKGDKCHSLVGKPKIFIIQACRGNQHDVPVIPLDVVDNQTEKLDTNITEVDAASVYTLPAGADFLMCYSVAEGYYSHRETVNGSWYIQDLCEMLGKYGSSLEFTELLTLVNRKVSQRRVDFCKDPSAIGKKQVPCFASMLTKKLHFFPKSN

Aminopeptidase N = target: T7, Aminopeptidase N (Plasmodium falciparum FcB1/Columbia, UniProt O96935); test: malaria alanyl aminopeptidase activity blockers – biochemical, fluorogenic H-Leu-NHMec substrate, 1536-well (AID 1445); parameters: species or system Plasmodium falciparum 3D7, 3D7
T7 sequence (O96935 whole entry): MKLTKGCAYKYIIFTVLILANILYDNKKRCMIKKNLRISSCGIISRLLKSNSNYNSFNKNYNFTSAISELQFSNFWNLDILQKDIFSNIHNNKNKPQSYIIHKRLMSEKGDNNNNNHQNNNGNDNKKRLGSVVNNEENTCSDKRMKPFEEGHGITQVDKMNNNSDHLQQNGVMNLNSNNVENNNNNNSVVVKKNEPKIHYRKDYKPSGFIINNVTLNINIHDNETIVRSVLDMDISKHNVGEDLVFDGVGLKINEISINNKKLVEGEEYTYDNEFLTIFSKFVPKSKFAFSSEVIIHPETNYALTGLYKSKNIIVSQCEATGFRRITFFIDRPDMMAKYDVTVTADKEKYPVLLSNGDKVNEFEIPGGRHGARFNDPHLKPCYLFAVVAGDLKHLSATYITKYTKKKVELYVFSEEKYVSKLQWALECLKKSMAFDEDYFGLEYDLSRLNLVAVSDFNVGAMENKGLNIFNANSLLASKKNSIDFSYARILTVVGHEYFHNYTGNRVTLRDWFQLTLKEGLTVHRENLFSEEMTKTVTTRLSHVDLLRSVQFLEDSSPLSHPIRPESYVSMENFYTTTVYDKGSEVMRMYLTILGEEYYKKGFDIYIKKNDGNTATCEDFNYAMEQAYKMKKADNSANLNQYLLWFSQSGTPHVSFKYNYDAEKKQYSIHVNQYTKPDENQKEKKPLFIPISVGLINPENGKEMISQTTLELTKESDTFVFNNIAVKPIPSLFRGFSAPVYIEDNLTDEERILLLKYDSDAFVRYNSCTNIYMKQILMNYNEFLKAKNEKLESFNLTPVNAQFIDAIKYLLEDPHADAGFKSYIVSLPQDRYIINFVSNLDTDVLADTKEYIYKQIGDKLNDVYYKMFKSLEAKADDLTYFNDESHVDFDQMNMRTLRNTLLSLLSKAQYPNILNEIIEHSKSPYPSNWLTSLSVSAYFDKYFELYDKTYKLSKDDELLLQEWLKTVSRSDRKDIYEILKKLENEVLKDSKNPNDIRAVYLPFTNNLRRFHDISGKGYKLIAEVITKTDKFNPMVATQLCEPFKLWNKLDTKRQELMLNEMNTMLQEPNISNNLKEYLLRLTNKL

[21] = target: Mitochondrial peptide methionine sulfoxide reductase (Bos taurus, UniProt P54149); type: functional;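 further: absorbance read-out, biochemical high-throughput dose-response screen for MsrA inhibitors, confirmatory; recombinant bovine MsrA coupled to E. coli TrxB with NADPH and selenocystamine; potency is for inhibitors of MsrA activity on DMSO substrate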
Chain of Mitochondrial peptide methionine sulfoxide reductase (P54149 whole entry): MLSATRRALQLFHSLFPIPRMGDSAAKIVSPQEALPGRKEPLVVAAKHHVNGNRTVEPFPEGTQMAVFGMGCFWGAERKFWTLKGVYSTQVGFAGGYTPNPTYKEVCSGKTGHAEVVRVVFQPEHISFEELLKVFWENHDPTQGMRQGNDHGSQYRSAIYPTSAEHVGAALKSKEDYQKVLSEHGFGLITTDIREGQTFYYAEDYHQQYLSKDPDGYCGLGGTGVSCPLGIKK

COc1ccc(-c2cnc3c(NC(C)=O)cc(-c4ccccc4OC)cn23)cc1OC
EC50 (Melanocortin receptor 4): > 89.2 µM (inactive)

Cc1ccccc1C(=O)N1CCN(c2ccc(NC(=O)c3cccc(OC(C)C)c3)cc2)CC1
IC50 (Interleukin-8 [1]): > 79 µM (inactive) | IC50 (Interleukin-8 [2]): 39.6 µM (inactive)

Cc1nc2ncnn2c(N2CCN(C(=O)c3ccco3)CC2)c1Cc1ccccc1
EC50 [3]: 2.14 µM (active) | EC50 [4]: 4.97 µM (active)

CC1=C(C(=O)NC(C)c2ccc3c(c2)OCCO3)C2(CCC(C)CC2)OC1=O (stereo not given)
IC50 [5]: 12 µM (active)

CCc1cc(C(=O)Nc2nc(-c3ccccn3)cs2)sc1C
CC50 [6]: 32 µM (active) | IC50 (H9c2): > 79 µM (inactive) | AC50 [7]: 103 µM (active)

CC(C)Nc1ccc(Nc2ccccc2)cc1
IC50 (Large T antigen): 9.01 µM (active) | EC50 [8]: 2.52 µM (active) | EC50 [9]: > 60 µM (not active) | IC50 [10]: > 80 µM (inactive) | IC50 (Nonstructural protein 1): 19.2 µM (active) | AC50 [11]: 127 µM (active) | EC50 (Protein RecA): 76.4 µM (active) | AC50 (INS1): 6.94 µM (active) | CC50 [12]: 26.2 µM (active) | IC50 [13]: 58 µM (active) | AC50 (Cytochrome P450 3A4): 25.1 µM (inconclusive) | AC50 [14]: 15.8 µM (inconclusive) | AC50 [15]: 44.7 µM (inconclusive)

CCc1ccc(C=C2SC(=S)N(CCCC(=O)Nc3ccc(C(=O)O)cc3)C2=O)cc1
IC50 [16]: 80 µM (inactive)

C[C@@H](NC(=O)c1ncn2c1c(O)nc1ccc(Br)cc12)c1ccccc1
IC50 [17]: 25 µM (inactive)

O=C(Nc1cccc2c(=O)[nH][nH]c(=O)c12)c1ccc([N+](=O)[O-])cc1
IC50 [18]: 3.01 µM (active) | IC50 [19]: 14.2 µM (active) | IC50 [20]: 4.92 µM (active) | AC50 (Caspase-6): 2.58 µM (active)

O=C(O)c1cc(-c2ccc(/C=N/N3C(=O)C4C5C=CC(C6CC56)C4C3=O)o2)ccc1Cl (stereo not given)
IC50 (Aminopeptidase N): 90.7 µM (active) | IC50 [21]: 122 µM (inactive)
